Measured values: US7083969B2, “Serratia marcescens strain” (Korea Research Institute of Bioscience and Biotechnology, priority 1997, dated 2006)

Tests used:
[1] = Body weight of injected mice in graft versus host experiment (toxicity); format: in vivo
Procedure: A graft versus host reaction was utilized for the in vivo assay of prodigiosin's immunosuppression. The graft versus host reaction enables an assessment of the immune response of T lymphocytes. On the sixth day after transplantation of the T lymphocytes of BDF1 mice different in histocompatibility antigen, the lymphatic nodes were measured for weight, thereby assessing the immune response of T lymphocyte to the grafted heteroantigens. The prodigiosin was peritoneally injected at a dose of 30–100 mg per kg of body weight for five days while cyclophosphamide, as a positive control, was peritoneally injected at a dose of 100 mg/kg for five days. The body weights of the injected mice were measured to compare the toxicity of prodigiosin with that of cyclophosphamide. […] As for the body weight, it was not changed in the mice injected with prodigiosin at an effective concentration.

T lymphocytes [2] = assay: Mixed lymphocyte reaction (T-cell response); format: cell-based, mice; conditions: for Immune Response (%) T cell: third day
Text: (§1) Germ-free test animals, mice BDF1 and B6C3F1, obtained from Genetic Resources Center, Korean Research Institute of Bioscience and Biotechnology in the Korean Institute of Science and Technology, were used for the assay of the immunosuppressive activity of prodigiosin. […] At such concentrations as show no cytotoxic effects, prodigiosin cannot suppress the immune response of B lymphocytes. […] This selective immunosuppression for T lymphocytes is not ascribed to the selective cytotoxicity for T lymphocytes. The same immunosuppression results as in the ex vivo experiments were obtained in in vivo experiments. When T lymphocyte activity was measured by use of a graft versus host reaction and a T cell-dependent antibody producing reaction, the prodigiosin suppressed the immune response, but exerted no toxicity on animals. Therefore, the immunosuppressive activity of the prodigiosin is thought to be attributed to the selective suppression for T lymphocyte activity.
(§2) The influence of prodigiosin on the functions of lymphocytes was measured using three reaction systems. First, the ability of B lymphocyte to proliferate in response to lipopolysaccharide stimulus was assessed. For this, on the third day after stimulation with lipopolysaccharide, the antibody production of the B lymphocyte was measured. When B lymphocytes are stimulated with lipopolysaccharide, they can produce antibodies without the aid of T lymphocyte. Second, a mixed lymphocyte reaction was induced in order to assess the effect on T-cell response. The reaction needs no aids from the B lymphocyte. On the third day after two types of heteroimmune cells, which are different from each other in histocompatibility antigen, were mixed to stimulate the activity of T lymphocytes, the T-cell response-was assessed. Third, the T-cell dependent antibody producing reaction was utilized to assess the effect of prodigiosin on the simultaneous immune response of both of the B and T lymphocytes. This reaction requires the functions of B and T lymphocytes, simultaneously. On the fifth day after immunization of the lymphocytes with the red blood cells of sheep, their antibody production ability was assessed.
(§3) In Table 3, the values are relative to the immune response of the lymphocytes untreated with prodigiosin.

B lymphocyte [3] = assay: Lipopolysaccharide-induced B lymphocyte proliferation (DNA synthesis); format: cell-based, mice; conditions: for Proliferation (%) B cell: three days
Text: as §1
(§4) Three standard substances which induce lymphocytes to proliferate were employed to measure the effect of the prodigiosin on proliferation of lymphocytes. 5 μg/ml of lipopolysaccharide were used to induce B lymphocyte to proliferate, 5 μg/ml of Concanavalin A for T lymphocyte and 5 μg/ml of Pokeweed mitogen for B and T lymphocytes, both. Prodigiosin was added, together with the proliferation-inducing substance. Three days after the addition, the proliferation effect was monitored by measuring the amount of DNA synthesized. In order to exclude the cytotoxicity of prodigiosin, it was used at a concentration of not more than 100 nM. In Table 2, the proliferation percentages mean the proliferated amounts of prodigiosin-treated lymphocytes relative to that of an non-treated group. As shown, the suppression percentage effected by prodigiosin in amounts of 30–100 nM reaches up to 96–98% for the T lymphocyte induced by concanavalin A while the proliferation of B lymphocyte induced by lipopolysaccharide and the proliferation of B/T lymphocytes induced by pokeweed mitogen are suppressed to the extent of 13–19% and 45–83%, respectively.

T lymphocyte = assay: Concanavalin A-induced T lymphocyte proliferation (DNA synthesis); format: cell-based, mice; conditions: for Proliferation (%) T cell: three days
Text: as §1, §4

T lymphocytes [4] = assay: T cell-dependent immune response in vivo (antibody producing cells after sheep red blood cell immunization); set-up: species or system mice; conditions: for Immune Response (%): 4 days after immunization
Text: as §1
(§5) A T cell-dependent immune response reaction was used to assess the influence of prodigiosin on T lymphocytes in vivo. Test animals were immunized with sheep red blood cells by peritoneal injection. 4 days after the immunization, the number of the antibody producing cells was counted. Prodigiosin was peritoneally injected everyday. Based on the number of the […] cells in the non-treated animals, the influence of prodigiosin on T lymphocytes in vivo was assessed as percentage. Also, the weight ratio of the spleen to the body was measured to assay the toxicity of prodigiosin to the animals. Cyclophosphamide was used as a positive control.

B lymphocyte [5] = assay: Antibody production of B lymphocytes stimulated with lipopolysaccharide; format: cell-based, mice; conditions: for effect on antibody production / immune response of B lymphocytes (words): non-cytotoxic concentration range (3-100 nM)
Text: as §1, §2, §3

[6] = test system: CD8 T cell (cytotoxic T cell); assay: Selective cytotoxicity: proportion of CD8 T cells after treatment; format: cell-based, mice; conditions: proportion of the cells
Text: as §1
Whether the selective immunosuppression of prodigiosin for T cells is attributed to the selective cytotoxicity for T cells or not was assayed by measuring the proportion of the cells. On the third day after treatment of the immune cells with prodigiosin, the number of the cells was counted. Because T lymphocytes consist of CD4 T cell (helper T cell) and CD8 T cell (cytotoxic T cell), the proportion of T and B lymphocytes was calculated in this Example.

CD8 T lymphocytes = assay: Immunosuppressive activity on CD8 T lymphocytes; format: cell-based
[7] = Weight ratio of the spleen to the body (toxicity); format: in vivo, mice
Procedure: as §5

CD4 T lymphocytes = assay: Immunosuppressive activity on CD4 T lymphocytes; format: cell-based

Compound: CCCCCC1=C/C(=C/c2[nH]c(-c3ccc[nH]3)cc2OC)N=C1C [Prodigiosin, prodigiosin]
- Body weight ([1]; 10 mg/kg peritoneally for five days): 20 g
- Body weight ([1]; 30 mg/kg peritoneally for five days): 21 g
- body weight change ([1]; at an effective concentration): not changed
- Immune Response (%) T cell (T lymphocytes [2]; 3 nM, mixed lymphocyte reaction, relative to untreated lymphocytes): 111%
- Immune Response (%) T cell (T lymphocytes [2]; 10 nM): 110%
- Immune Response (%) T cell (T lymphocytes [2]; 30 nM): 67%
- Immune Response (%) T cell (T lymphocytes [2]; 100 nM): 30%
- immune response in which T lymphocytes are involved (T lymphocytes [2]; Table 3 concentration range): significantly suppressed
- Proliferation (%) B cell (B lymphocyte [3]; 3 nM, 5 μg/ml lipopolysaccharide, relative to non-treated group): 101%
- Proliferation (%) B cell (B lymphocyte [3]; 10 nM, lipopolysaccharide): 105%
- Proliferation (%) B cell (B lymphocyte [3]; 30 nM, lipopolysaccharide): 87%
- Proliferation (%) B cell (B lymphocyte [3]; 100 nM, lipopolysaccharide): 81%
- suppression of proliferation of B lymphocyte induced by lipopolysaccharide (B lymphocyte [3]; 30–100 nM): 13–19%
- effect on proliferation of B lymphocytes (B lymphocyte [3]; non-cytotoxic concentrations): no influence
- Proliferation (%) T cell (T lymphocyte; 3 nM, 5 μg/ml Concanavalin A, relative to non-treated group): 77%
- Proliferation (%) T cell (T lymphocyte; 10 nM, Concanavalin A): 46%
- Proliferation (%) T cell (T lymphocyte; 30 nM, Concanavalin A): 4%
- Proliferation (%) T cell (T lymphocyte; 100 nM, Concanavalin A): 2%
- suppression percentage, T lymphocyte induced by concanavalin A (T lymphocyte; 30–100 nM): 96–98%
- effect on proliferation and activity of T lymphocytes (T lymphocyte; non-cytotoxic concentrations): potential suppressive effect
- Immune Response (%) (T lymphocytes [4]; 10 mg/kg peritoneally everyday, antibody producing cells vs non-treated animals): 32%
- Immune Response (%) (T lymphocytes [4]; 30 mg/kg peritoneally everyday): 27%
- number of the antibody-producing cells (T lymphocytes [4]; peritoneal injection everyday): significantly reduced
- Immune Response (%) B cell (B lymphocyte [5]; 3 nM, antibody production, third day after lipopolysaccharide, relative to untreated lymphocytes): 116%
- Immune Response (%) B cell (B lymphocyte [5]; 10 nM, third day): 108%
- Immune Response (%) B cell (B lymphocyte [5]; 30 nM, third day): 100%
- Immune Response (%) B cell (B lymphocyte [5]; 100 nM, third day): 97%
- effect on antibody production / immune response of B lymphocytes (words) (B lymphocyte [5]): no influence
- effect on antibody production / immune response of B lymphocytes (words) (B lymphocyte [5]; listed as prodigiosin): not at all
- Proliferation (%) CD8 T cell ([6]; 3 nM, third day after treatment): 13%
- Proliferation (%) CD8 T cell ([6]; 10 nM, third day): 13%
- Proliferation (%) CD8 T cell ([6]; 30 nM, third day): 12%
- Proliferation (%) CD8 T cell ([6]; 100 nM, third day): 10%
- immunosuppressive activity on CD8 T lymphocytes (CD8 T lymphocytes): has an immunosuppressive activity
- Wt. Ratio of spleen/body (%) ([7]; 10 mg/kg peritoneally everyday): 95%
- Wt. Ratio of spleen/body (%) ([7]; 30 mg/kg peritoneally everyday): 84%
- toxicity judged by weight ratio of the spleen to the body ([7]; at effective concentrations): no toxicity
- immunosuppressive activity on CD4 T lymphocytes (CD4 T lymphocytes): has an immunosuppressive activity
